#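 These data come from cells grown in 96-well plates and exposed to compound for 48 hours at five concentrations. At the TGI there is no net growth.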
# Tests used:
# Test in all cases: growth of human tumour cells (NCI), 48 h
# CAKI-1 renal = system: CAKI-1 renal
# LOX IMVI melanoma = system: LOX IMVI melanoma
# RPMI-8226 leukemia = system: RPMI-8226 leukemia
# UACC-257 melanoma = system: UACC-257 melanoma
# OVCAR-5 ovarian = system: OVCAR-5 ovarian
# T-47D breast = system: T-47D breast
# UACC-62 melanoma = system: UACC-62 melanoma
# IGROV1 ovarian = system: IGROV1 ovarian
# SW-620 colon = system: SW-620 colon
# HOP-62 NSCLC = system: HOP-62 NSCLC
# SNB-75 CNS = system: SNB-75 CNS
# NCI-H226 lung = system: NCI-H226 lung
# SK-OV-3 ovarian = system: SK-OV-3 ovarian
# TK-10 renal = system: TK-10 renal
# OVCAR-3 ovarian = system: OVCAR-3 ovarian
# NCI/ADR-RES ovarian = system: NCI/ADR-RES ovarian
# OVCAR-4 ovarian = system: OVCAR-4 ovarian
# K-562 leukemia = system: K-562 leukemia
# SNB-19 CNS = system: SNB-19 CNS
# A498 renal = system: A498 renal
Structure (SMILES),TGI (CAKI-1 renal),TGI (LOX IMVI melanoma),TGI (RPMI-8226 leukemia),TGI (UACC-257 melanoma),TGI (OVCAR-5 ovarian),TGI (T-47D breast),TGI (UACC-62 melanoma),TGI (IGROV1 ovarian),TGI (SW-620 colon),TGI (HOP-62 NSCLC),TGI (SNB-75 CNS),TGI (NCI-H226 lung),TGI (SK-OV-3 ovarian),TGI (TK-10 renal),TGI (OVCAR-3 ovarian),TGI (NCI/ADR-RES ovarian),TGI (OVCAR-4 ovarian),TGI (K-562 leukemia),TGI (SNB-19 CNS),TGI (A498 renal)
COC(=O)[C@H](Cc1ccccc1)NC(=O)OCC1OC(n2cc(C)c(=O)[nH]c2=O)CC1N=[N+]=[N-] (some centres not stated),> 100 µM,> 100 µM,> 100 µM,> 100 µM,> 100 µM,> 100 µM,> 100 µM,> 100 µM,> 100 µM,> 100 µM,> 100 µM,> 100 µM,> 100 µM,> 100 µM,> 100 µM,> 100 µM,> 100 µM,> 100 µM,> 100 µM,–
COc1nc2c(c(=O)[nH]1)N=C(c1ccccc1)CC(c1ccccc1)N2 (configuration not stated),> 100 µM,> 100 µM,75 µM,> 100 µM,> 100 µM,–,> 100 µM,> 100 µM,> 100 µM,> 100 µM,52.5 µM,> 100 µM,> 100 µM,–,> 100 µM,> 100 µM,81.4 µM,60.3 µM,> 100 µM,> 100 µM
Cc1cc2c3c(nc2c2cc[nH]c(C)c12)CCCC3,–,4.69 µM,4.56 µM,3.66 µM,13.6 µM,4.53 µM,3.32 µM,5.4 µM,3.79 µM,3.62 µM,4.02 µM,29.6 µM,3.7 µM,4.64 µM,5.07 µM,19.5 µM,6.45 µM,5.65 µM,–,–
C=CC(=C)CCC(Br)C(C)(C)Br (configuration not stated),–,–,> 100 µM,> 100 µM,> 100 µM,> 100 µM,> 100 µM,> 100 µM,> 100 µM,> 100 µM,> 100 µM,> 100 µM,> 100 µM,> 100 µM,> 100 µM,> 100 µM,> 100 µM,> 100 µM,> 100 µM,–
CCSC1=N/C(=C\c2ccco2)C(Nc2ccc(C)cc2)=N1,–,> 100 µM,> 100 µM,–,> 100 µM,–,> 100 µM,> 100 µM,> 100 µM,> 100 µM,> 100 µM,> 100 µM,> 100 µM,> 100 µM,> 100 µM,> 100 µM,–,> 100 µM,> 100 µM,> 100 µM
CCCCC1Nc2ccccc2-c2ccnc(Cl)c21 (configuration not stated),20.2 µM,34.7 µM,31.9 µM,42.3 µM,–,–,32.2 µM,47.9 µM,> 100 µM,53.3 µM,52.3 µM,39.9 µM,55.7 µM,> 100 µM,25.2 µM,99.6 µM,91.5 µM,62.8 µM,77.7 µM,46.4 µM
CSc1nc2nccnc2c(=O)[nH]1,> 100 µM,> 100 µM,> 100 µM,> 100 µM,> 100 µM,–,> 100 µM,> 100 µM,> 100 µM,> 100 µM,> 100 µM,> 100 µM,> 100 µM,> 100 µM,–,–,> 100 µM,> 100 µM,> 100 µM,> 100 µM

# From PubChem BioAssay (NCI)
